Reference: patent EP0694545B1, “Substituted dibenzoxazepine compounds, pharmaceutical compositions and methods of use” (G.D. SEARLE & CO., priority 1991, dated 1992)

Columns and labels:
[1] = tested on: prostaglandin E2-induced contractions of segments of guinea pig ileum; assay: Prostaglandin (PGE) Antagonism Assay in guinea pig ileum; type: cell-based; set-up: key to PGE ANTAGONISM IN GUINEA PIG ILEUM (Active): Active: A concentration of test compound was determined to be "active" if it produced a dose ratio significantly greater than that obtained in a series of blank treatments; conditions: for PGE ANTAGONISM IN GUINEA PIG ILEUM (Active): initial concentration of test compound, dose ratio of EC50 dose values versus blank treatments; for Kb: Cavia porcellus, read-out: PGE ANTAGONISM IN GUINEA PIG ILEUM (pA2) (converted)
Experimental: In order to determine the effectiveness of several of the compounds of the present invention ("test compounds") as prostaglandin E2 antagonists, a prostaglandin antagonism assay was conducted, as described below, to determine the ability of these compounds to inhibit prostaglandin E2-induced contractions of segments of guinea pig ileum.
Male albino guinea pigs weighing 200 to 500 grams were sacrificed by cervical dislocation.
The ileums were then quickly removed from the guinea pigs and placed in a modified Tyrode solution, a solution which is known to those of skill in the art, containing one-half of the usual amount of magnesium ions.
Segments of ileum about 2 cm long were then cut and mounted in a 10-mL tissue bath containing the modified Tyrode solution. The solution was maintained at 37°C and aerated with a gaseous mixture of 95% oxygen and 5% carbon dioxide.
Submaximal contractions of the ileum segments were then generated by injecting prostaglandin E2 into the bath, and detected isotonically. Data for a control prostaglandin E2 dose response curve plotting concentration of prostaglandin E2 versus number of contractions generated was then obtained by experimentally adjusting the dose of the prostaglandin E2 being injected into the tissue bath, in a manner known by those of skill in the art.
Solutions or suspensions containing an initial amount of a test compound in modified Tyrode solution ("test solutions/ suspensions") were then separately substituted for the tissue bath. Each test solution/suspension was then kept in constant contact with the ileum tissue, except for brief periods to drain the bath in preparation for rinsing with fresh test solution/suspension. Different doses of prostaglandin E2 were again injected into the test solutions/suspensions.
A second prostaglandin E2 dose response curve was then generated for prostaglandin E2 in the presence of a test compound.
A dose ratio of EC50 dose values was then calculated from the results of each test in a manner known by those of skill in the art. […] Duplicate tests were conducted on each concentration of test compound.
If the initial concentration of a test compound was determined to be "active," then varying concentrations of the test compound were then assayed. As is shown in Table I below, all test compounds analyzed in this assay were determined to be "active" as prostaglandin E2 antagonists at the initial concentration.
The pA2 value (a statistical constant which is a common measure of expressing the potency of a particular drug as a competitive antagonist) was then calculated for each test compound by schild plot calculations, as described by H. O. Schild, "pA, A New Scale for the Measurement of Drug Antagonism," Br. J. Pharmacol, 2, 189 (1947), according to the following mathematical formula: pA2 = -log[Test Compound] to quantitate the effectiveness of the test compounds as prostaglandin E2 antagonists.

[2] = tested on: Charles River male albino mice; assay: PBQ Writhing Assay (analgesic activity); type: in vivo; conditions: for PBQ WRITHING ASSAY I.G. (Active / *): intragastric; for PBQ WRITHING ASSAY I.G. (Active / *) / PBQ WRITHING ASSAY S.C. (Active / *): initial screening dose 30 mg per kilogram, 30 min before PBQ i.p., writhes counted for ten minutes; for PBQ WRITHING ASSAY S.C. (Active / *): subcutaneous; for ED50: Mus musculus, po, read-out: PBQ WRITHING ASSAY (ED50 (mpk)) I.G.
Text: The Writhing Assay is one of the most widely-used experimental procedures for measuring the analgesic activity of different narcotic and nonnarcotic analgesic agents, and involves the continuous, chemically-induced pain of visceral origin to an animal, such as a mouse or rat. [Gyires et al., Arch. int. Pharmacodyn, 267, 131-140 (1984); […] al., Fed. Proc., 15, 494 (1956); Koster et al., Fed. Proc., 18, 412 (1959); and Witken et al., J. Pharmacol. exp. Ther., 133, 400-408 (1961).] Chemicals which may be used to induce this pain include phenylbenzoquinone (PBQ) and acetic acid. As a result of the chemical irritation to the animal, a characteristic stretching and writhing of the animal (dorsiflexion of the animal's back, extension of its hindlimbs and the strong contraction of its abdominal musculature) will generally occur. […] Drugs which reduce the number of writhes of the animal appear to restore the normal nociceptive threshold of the animal. Charles River male albino mice, weighing 20 to 30 grams were used in this assay. Thirty minutes after subcutaneous or intragastric administration to ten mice of 30 mg per kilogram of body weight of a compound of the present invention ("test compound"), […] per 10 g of body weight of a 0.025% w/v solution of PBQ was injected intraperitoneally into each mouse. Ten mice which were given saline in place of a test compound of the invention were used as a control group. Five minutes later, each mouse was individually placed into a glass beaker for observation, and the number of writhes occurring during the following ten-minute period was counted. A test compound was considered to have produced analgesia in a mouse if, in accordance with the conditions set forth above, and under the test criteria employed for this assay, after the administration of 30 mg per kilogram of body weight of a compound of the present invention to the mouse, the number of writhes elicited by a mouse injected with PBQ was equal to, or less than, one-half the median number of writhes recorded for the saline-treated control group of mice that day, as described by Taber in "Predictive Value of Analgesic Assays in Mice and Rats," Advances in Biochemical Psychopharmacology, 8, 191 (1974). The standard initial screening dose of a test compound employed in this assay was […] for both routes of administration. If this initial screening dose of the test compound produced analgesia in seven of ten mice, then the effect of additional doses of the test compound on the writhing response was evaluated, and then the ED50 dose was generally calculated. (The slopes of the dose-response curves for all test compounds analyzed were compared as described by Tallarida and Murray, Manual of Pharmacologic Calculations, Page 11 (Springer Verlag, New York, 1981)).

Compound | PGE ANTAGONISM IN GUINEA PIG ILEUM (pA2) ([1]; Schild plot calculation) | PGE ANTAGONISM IN GUINEA PIG ILEUM (Active) [1] | PBQ WRITHING ASSAY (ED50 (mpk)) I.G. ([2]; intragastric administration) [mpk] | PBQ WRITHING ASSAY I.G. (Active / *) [2] | PBQ WRITHING ASSAY (ED50 (mpk)) S.C. ([2]; subcutaneous administration) [mpk] | PBQ WRITHING ASSAY S.C. (Active / *) [2] | Kb ([1]; Schild plot calculation) [nM] | ED50 ([2]; intragastric administration) [mg/kg]
8-chlorodibenz[b,f][1,4]oxazepine-10(11H)-carboxylic acid, 2-[1-oxo-3-(4-pyridinyl)propyl]hydrazide, monohydrochloride [Example 26] | 6.5 | Active | 6.8 | Active | 6.3 | Active | – | –
O=C(CCc1ccccn1)NNC(=O)N1Cc2ccccc2Oc2ccc(Cl)cc21 [Example 6, 8-chlorodibenz[b,f][1,4]oxazepine-10(11H)-carboxylic acid, 2-[1-oxo-3-(2-pyridinyl)propyl]hydrazide] | – | Active | – | Active | – | Active | 2510 | 8.6
O=C(CCCc1cccs1)NNC(=O)N1Cc2ccccc2Oc2ccc(Cl)cc21 [Example 9, 8-chlorodibenz[b,f][1,4]oxazepine-10(11H)-carboxylic acid, 2-[1-oxo-4-(2-thienyl)butyl]hydrazide] | – | Active | – | Active | – | Active | 25.1 | 6.8
